Assay results published in paper PMC12631937, “Autologous Organoid‐T Cell Co‐Culture Platform for Modeling of Immune‐Mediated Drug‐Induced Liver Injury” (Advanced Science, 2025).

Experiments:
[1] = test system: HLO microarrays (iPSC-derived human liver organoids); experiment: HLO microarray cytotoxicity, DRAQ7-positive nuclei (dead cells); format: cell-based; conditions: 168 h, seven-day repeated-dose treatment, Figure 2C, read-out: Cell death (% Draq7+ cells) IC50
Protocol: HLO microarrays were exposed to seven‐day repeated‐dose treatment of Chlorpromazine and Flucloxacillin across five half‐log‐spaced concentrations, with vehicle‐treated wells serving as controls. Following treatment, cell viability was assessed by quantifying total cellular ATP content using the CellTiter‐Glo assay, while cytotoxicity was determined by counting DRAQ7‐positive nuclei (dead cells) in organoids. Hepatic functionality was further evaluated by measuring albumin secretion in the culture supernatant via ELISA (Figure 2A). Chlorpromazine (Sigma) and Streptomycin (MCE) were dissolved in DMSO, and 5–7 serial dilutions of 200 × stock solutions were prepared alongside corresponding vehicle controls (0.5% DMSO). Aliquots were frozen to ensure consistency across experiments. On the day of treatment, aliquots were thawed and diluted in liver maturation medium to achieve final working concentrations. […] Dose‐response curves and IC50 values were determined by nonlinear regression of log‐transformed compound concentrations (6‐8 point serial dilutions including vehicle) against normalized viability data. […] To contextualize in vitro toxicity data with human exposure levels, Margin of Safety (MOS) values were calculated as the ratio of the in vitro IC50 to the compound's reported clinical maximum plasma concentration (MOS = IC50 / Cmax).

[2] = test system: HLO microarrays (iPSC-derived human liver organoids); experiment: cells
Protocol: HLO microarrays were exposed to seven‐day repeated‐dose treatment of Chlorpromazine and Flucloxacillin across five half‐log‐spaced concentrations, with vehicle‐treated wells serving as controls. Following treatment, cell viability was assessed by quantifying total cellular ATP content using the CellTiter‐Glo assay, while cytotoxicity was determined by counting DRAQ7‐positive nuclei (dead cells) in organoids. Hepatic functionality was further evaluated by measuring albumin secretion in the culture supernatant via ELISA (Figure 2A).
Chlorpromazine (Sigma) and Streptomycin (MCE) were dissolved in DMSO, and 5–7 serial dilutions of 200 × stock solutions were prepared alongside corresponding vehicle controls (0.5% DMSO). Aliquots were frozen to ensure consistency across experiments. On the day of treatment, aliquots were thawed and diluted in liver maturation medium to achieve final working concentrations. Flucloxacillin (Sigma) was freshly prepared in liver maturation medium immediately prior to each dosing. HLO microarrays were treated over a 7‐day period, with a single re‐dosing and media refreshment on day 3. The highest concentrations tested for all compounds were 1000 µM.
Cell viability was assessed on day 7 using the CellTiter‐Glo 3D Cell Viability Assay (Promega, Cat. G9682). Luminescence was recorded using a Spectra Max iD3 microplate reader (Molecular Devices) following the manufacturer's recommended settings. Viability data from compound‐treated HLOs were normalized to the corresponding vehicle controls on the same plate.
Dose‐response curves and IC50 values were determined by nonlinear regression of log‐transformed compound concentrations (6‐8 point serial dilutions including vehicle) against normalized viability data. Curve fitting was performed using a variable Hill slope and constraining the top and bottom of the curve to 100 and 0, respectively (GraphPad Prism, GraphPad Software, La Jolla, CA, USA). To contextualize in vitro toxicity data with human exposure levels, Margin of Safety (MOS) values were calculated as the ratio of the in vitro IC50 to the compound's reported clinical maximum plasma concentration (MOS = IC50 / Cmax).

[3] = test system: HLO microarrays (iPSC-derived human liver organoids); experiment: Albumin secretion of HLO microarrays in culture supernatant (ELISA); format: cell-based; conditions: 168 h, seven-day repeated-dose treatment, Figure 2E, read-out: Albumin release (% of control) IC50
Text: Hepatic functionality was further evaluated by measuring albumin secretion in the culture supernatant via ELISA (Figure 2A). […] Aliquots were frozen to ensure consistency across experiments. On the day of treatment, aliquots were thawed and diluted in liver maturation medium to achieve final working concentrations. Flucloxacillin (Sigma) was freshly prepared in liver maturation medium immediately prior to each dosing.

[4] = reported clinical Cmax; cited from earlier work
CD8+ T cells = experiment: Monocyte-derived dendritic cell (mDC) priming assay of naïve CD8+ T cells, flow cytometry; format: cell-based, human
Text: Peripheral blood samples were collected from four HLA‐B*57:01 carriers and four HLA‐B*57:01 non‐carrier donors (Figure 4B). To generate antigen‐specific CD8⁺ T cells, we employed a monocyte‐derived dendritic cell (mDC) priming assay (Figure 4A). Naïve CD8⁺ T cells and monocytes were isolated from peripheral blood mononuclear cells (PBMCs) of each donor. mDCs were differentiated using IL‐4 and GM‐CSF, followed by maturation and activation with LPS and IFN‐γ. Mature mDCs were then loaded with Flucloxacillin or media alone and used to prime naïve CD8⁺ T cells. After priming, CD8⁺ T cells (i.e., Flucloxacillin‐primed CD8^+ T cells) were expanded in the presence of a low dose of IL‐15 for 10 days, followed by CFSE labeling and re‐stimulation with freshly loaded mDCs under the same conditions. Flow cytometry was used to assess CD8⁺ T cell maturation, proliferation, and post‐priming activation. […] T cell antigen‐specific activation efficacy was evaluated using multi‐color flow cytometry with Diva and FlowJo (BD software). T cell proliferation and activation were assessed using CFSE (1 µM, ThermoFisher) for proliferation, Human TruStain FcX for Fc receptor blocking, and a panel of antibodies including CD3 (clone UCHT1), CD8 (clone 3B5), CD4 (clone RPA‐T4), CD45RO (clone UCHL1), CD107a (clone H4A3), HLA‐DR (clone TU36), CD137 (clone 4B4), and CD69 (clone FN50). […]

[5] = test system: HLOs co-cultured with autologous Flucloxacillin-primed CD8+ T cells; experiment: Autologous HLO - CD8+ T cell co-culture, immune-mediated hepatocyte injury; format: cell-based, human
Protocol: To model immune‐mediated liver injury, Flucloxacillin‐primed CD8⁺ T cells from three HLA‐B*57:01 carrier and three HLA‐B*57:01 non‐carrier donors were co‐cultured with autologous HLOs pre‐treated with Flucloxacillin (Figure 5A). Co‐cultures with unprimed CD8⁺ T cells served as controls to exclude non‐specific T cell reactivity. HLOs were generated from iPSC lines derived from donor PBMCs and exposed to 100 µM Flucloxacillin for 72 h before initiating co‐culture. On day 23 of maturation, HLOs were co‐cultured with unprimed or Flux‐primed CD8⁺ T cells to assess immune‐mediated hepatocyte injury. Liver damage was quantified using immunofluorescence‐based detection of DRAQ7⁺ dead cells and measurement of cytokeratin‐18 (CK‐18) release, a highly specific biomarker of early‐stage DILI. CK‐18, an intermediate filament protein expressed in hepatocytes and cholangiocytes but absent in immune cells, provided greater specificity for hepatocyte death than traditional markers such as LDH or ATP.
Culture supernatants were analyzed to quantify albumin and CK18 levels using sandwich ELISA kits (Albumin, Abcam, and M65 EpiDeath CK18Diapharma) according to manufacturer's protocols. TNFα and Granzyme B secretion were measured using the Luminex Discovery Assay kit (R&D Systems/Biotechne) according to the manufacturer's protocol.
Following initial 12 day priming as described above, CD8^+ T cells were stained with CFSE (5 µM, Fisher Scientific, Catalog No. 11‐0699‐42) and resuspended in an optimized co‐culture media. This media consisted of a 1:1 mixture of complete RPMI (RPMI + 1% penicillin/streptomycin and 150 IU mL^−1 IL‐2) and modified liver maturation media (excluding HGF, dexamethasone and hydrocortisone) supplemented with 10 IU mL^−1 IL‐7 and 10 IU/ml IL‐15. Labeled CD8⁺ T cells were added to mature (day 23) HLO microarray cultures at effector‐to‐target (E:T) ratios of 1:1 and 1:5. These ratios were chosen to reflect the localized enrichment of cytotoxic lymphocytes observed during immune‐mediated liver injury, including periportal CD8⁺ T cell infiltration in flucloxacillin‐induced DILI (PMID: 24 731 753).^[ [14] ^] Prior to co‐culture, HLO were pretreated with 100 µM Flucloxacillin for 72 h. The co‐culture was maintained for 72 h with media exchanges performed every 24 h. When indicated, T cell activation was induced using anti‐CD3 (1 µg ml^−1, BioLegend) and anti‐CD28 (1 µg ml^−1, BioLegend) antibodies.

[6] = Homo sapiens, 168 h, read-out: Cell Viability (% of control) IC50, ATP-based, seven-day repeated-dose treatment, Figure 2D
[7] = Homo sapiens, read-out: average IC50, average across three independent iPSC-derived HLO lines (donors), Figure S2

SMILES | IC50 [1] | IC50 [2, 6] | IC50 [2, 7] | margin of safety (MOS = IC50 / Cmax) ([2]; human, 7 days) | IC50 ([2]; read-out: Cell Viability (% of control) IC50, ATP-based, seven-day repeated-dose treatment, Figure 2D) | IC50 [3] | Cmax [4] | cytotoxicity at clinically relevant exposures [2] | CD8+ T cell response to priming (CD8+ T cells; HLA-B*57:01 non-carrier donors) | increase in T cell proliferation (CFSElow cells) and activation marker expression relative to media-alone priming (CD8+ T cells; two of four HLA-B*57:01-positive donors (robust responders), DCs pulsed with 1000 µM) | secretion of TNF-α and Granzyme B ([5]; primed CD8+ T cells from HLA-B*57:01 carrier donors 534 and 622) | CK-18 release ([5]; primed CD8+ T cells from HLA-B*57:01 carrier donors 534 and 622, HLOs pre-treated with 100 µM for 72 h) | increase in DRAQ7+ cell death compared to T cell-free controls ([5]; primed CD8+ T cells from HLA-B*57:01 carrier donors 534 and 622, HLOs pre-treated with 100 µM for 72 h, 72 h co-culture) | hepatocyte death or CK-18 release ([5]; primed T cells from weak-responder HLA-B*57:01 carriers and all non-carrier donors)
CN(C)CCCN1c2ccccc2Sc2ccc(Cl)cc21 [Chlorpromazine] | 19.7 µM | 14.5 µM | 11.1 µM | ≈ 15.3 | 14.4 µM | 6.36 µM | ~0.94 µM | – | – | – | – | – | – | –
Cc1onc(-c2c(F)cccc2Cl)c1C(=O)N[C@@H]1C(=O)N2[C@@H]1SC(C)(C)[C@@H]2C(=O)O [Flucloxacillin] | > 1000 µM | > 1000 µM | – | – | – | > 1000 µM | ~31 µM | no cytotoxicity | did not exhibit a comparable response | over 2 fold | increased secretion | significantly elevated | 4 fold | failed to induce hepatocyte death
[H]/N=C(/N)N[C@H]1[C@H](O)[C@@H](O)[C@H](O[C@@H]2O[C@@H](C)[C@](O)(C=O)[C@H]2O[C@@H]2O[C@@H](CO)[C@H](O)[C@@H](O)[C@@H]2NC)[C@@H](N/C(N)=N\[H])[C@@H]1O [Streptomycin] | – | – | 341 µM | – | – | – | ~72.2 µM | no cytotoxicity | – | – | – | – | – | –
